{"source": "patent US11618772B2", "about": "(Kineta Chronic Pain, LLC, priority 2014, dated 2023)", "data": [{"smiles": "C[C@@H](O)[C@@H]1NC(=O)[C@@H]2CSSC[C@@H](C(=O)N[C@@H](Cc3ccc(O)cc3)C(N)=O)NC(=O)[C@H](CCC(N)=O)NC(=O)[C@H](Cc3ccc(O)c(I)c3)NC(=O)[C@H](CCCNC(N)=O)NC(=O)[C@H](CSSC[C@H](NC(=O)CN)C(=O)N2)NC(=O)[C@H](CCCNC(=N)N)NC(=O)[C@@H]2CCCN2C(=O)[C@H](CC(=O)O)NC1=O", "note": "[CSP-4-NH2, GCCTDPRCX11X12QCY-amide]", "values": [{"measurement": "stability in human plasma (Citrate)", "result": "increased stability compared to CSP-4"}]}]}
